Key:
human GR [1] = target: T1, human GR (Homo sapiens, UniProt P04150); experiment: Transrepression Assay (GITAR), TNFα-β-lactamase reporter in U937 cells; format: cell-based; design: U937 cells contain an endogenous glucocorticoid receptor (GR); endogenous in cells; host or cells: U937 cells stably transfected with the TNF-alpha promoter/beta-lactamase reporter; conditions: for GITAR > GRAMM % SEP: GITAR Emax minus GRAMMER Emax; for EC50: U937 cells, inflection point, read-out: Transrepression U937 Cells GITAR IP
T1 sequence (P04150 1-777): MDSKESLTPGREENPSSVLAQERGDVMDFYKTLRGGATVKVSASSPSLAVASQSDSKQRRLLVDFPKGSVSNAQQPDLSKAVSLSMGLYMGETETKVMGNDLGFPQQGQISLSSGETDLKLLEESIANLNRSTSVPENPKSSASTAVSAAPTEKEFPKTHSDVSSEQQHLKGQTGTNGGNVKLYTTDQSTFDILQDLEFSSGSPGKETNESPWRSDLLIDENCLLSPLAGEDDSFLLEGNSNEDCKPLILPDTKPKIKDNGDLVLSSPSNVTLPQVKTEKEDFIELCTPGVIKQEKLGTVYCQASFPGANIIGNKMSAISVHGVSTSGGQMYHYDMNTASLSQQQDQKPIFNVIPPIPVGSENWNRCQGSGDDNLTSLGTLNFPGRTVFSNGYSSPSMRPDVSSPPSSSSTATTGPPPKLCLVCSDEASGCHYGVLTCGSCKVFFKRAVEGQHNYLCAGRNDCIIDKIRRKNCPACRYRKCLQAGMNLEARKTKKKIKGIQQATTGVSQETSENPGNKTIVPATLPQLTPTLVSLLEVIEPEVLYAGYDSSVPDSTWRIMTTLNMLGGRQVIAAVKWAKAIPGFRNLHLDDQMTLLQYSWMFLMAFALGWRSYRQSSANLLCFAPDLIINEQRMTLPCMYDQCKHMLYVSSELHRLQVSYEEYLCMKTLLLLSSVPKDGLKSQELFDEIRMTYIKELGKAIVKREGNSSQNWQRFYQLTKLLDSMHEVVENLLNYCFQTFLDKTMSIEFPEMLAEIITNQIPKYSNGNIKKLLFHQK
Outline: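 Read-out: CCF2-AM β-lactamase signal after 70–90 min loading at room temperature. U937 TNF-α-promoter reporter cells (endogenous GR), compound 30–45 min at 37 °C, then PMA 5 ng/ml + LPS 100 ng/ml final, ~18 hr. Normalised to 100 nM dexamethasone = 100%.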

human GR [2] = target: T1, human GR; experiment: Trans-Activation Modulation of Glucocorticoid Receptor (GRAMMER), MMTV-LUC reporter, agonist mode; format: cell-based; design: endogenous in cells; conditions: for Emax: A549, A549 cells, maximum activity, read-out: Transactivation A549 Cells GRAMMER Emax; for EC50: A549 cells, inflection point, read-out: Transactivation A549 Cells GRAMMER IP
Outline: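 Readout is luciferase from a modified MMTV LTR promoter after 24 h compound exposure alongside 10 nM dexamethasone (100% activity reference), DMSO ≤1%.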

[3] = U-937, U937 cells, maximum activity, read-out: Transrepression U937 Cells GITAR Emax
[4] = U-937, activity repressed by 100 nM dexamethasone alone set as 100%, read-out: maximal activity in the transrepression (GITAR) assay

GITAR > GRAMM % SEP (human GR [1]) [%]	EC50 (human GR [1]) [µM]	Emax (human GR [1]; [3]) [%]	Emax (human GR [1]; [4]) [%]	Emax (human GR [2]) [%]	EC50 (human GR [2]) [µM]	Structure (SMILES)
23.4	0.286	61.1	> 5	37.8	0.306	C[C@]12Cc3cnn(-c4ccc(F)cc4)c3C=C1CC[C@@H]2CN(CCc1ccccn1)S(=O)(=O)Cc1ccccn1 [Example 165, N-{[(4αR,5S)-1-(4-fluorophenyl)-4α-methyl-1,4,4α,5,6,7-hexahydrocyclopenta[f]indazol-5-yl]methyl}-1-pyridin-2-yl-N-(2-pyridin-2-ylethyl)methanesulfonamide]
15.3	0.549	71.7	> 5	56.4	0.303	C[C@]12Cc3cnn(-c4ccc(F)cc4)c3C=C1CC[C@@H]2CN(CCc1ccccn1)S(=O)(=O)Cc1ccncc1 [Example 166, N-{[(4αR,5S)-1-(4-fluorophenyl)-4α-methyl-1,4,4α,5,6,7-hexahydrocyclopenta[f]indazol-5-yl]methyl}-1-pyridin-4-yl-N-(2-pyridin-2-ylethyl)methanesulfonamide]
12.5	0.159	87.4	> 5	74.9	0.15	C[C@]12Cc3cnn(-c4ccc(F)cc4)c3C=C1CC[C@@H]2CN(CC(O)C(F)(F)F)S(=O)(=O)Cc1ccccc1C(N)=O (stereo partly drawn) [Example 167, 2-({[{[(4αR,5S)-1-(4-fluorophenyl)-4α-methyl-1,4,4α,5,6,7-hexahydrocyclopenta[f]indazol-5-yl]methyl}(3,3,3-trifluoro-2-hydroxypropyl)amino]sulfonyl}methyl) benzamide]
35.0	0.119	83.1	> 5	48.1	0.123	Cc1noc(C)c1S(=O)(=O)N(C[C@H]1CCC2=Cc3c(cnn3-c3ccc(F)cc3)C[C@@]21C)C[C@@H](C)O [Example 168, N-{[(4αR,5S)-1-(4-fluorophenyl)-4α-methyl-1,4,4α,5,6,7-hexahydrocyclopenta[f]indazol-5-yl]methyl}-N-[(2R)-2-hydroxypropyl]-3,5-dimethylisoxazole-4-sulfonamide]
